Where a SMILES comes first, the peptide text is derived from it.
Experiments:
[1] = tested on: AVP (arg-vasopressin) levels of eye plexus plasma; assay: Vasopressin release: AVP levels of eye plexus plasma (RIA); type: in vivo, Female Wistar rats; conditions: 10 μg per rat subcutaneously
Procedure: The effect of (2-9)-α-endorfine on AVP (arg-vasopressin) levels of eye plexus plasma was tested.
Female Wistar rats (140-160 g) were anaesthetized with ether for a strictly controlled period of 45 seconds. Samples of eye plexus blood were taken and stored in cooled plastic tubes to which heparin was added. The tubes were centrifuged at 4° C. in order to obtain the plasma. The immunoreactive AVP was directly measured in 20 μl of eye plexus plasma with the aid of RIA (radio-immuno-assay) methods.
The rats were treated with placebo or with 10 μg of (2-9)-α-endorfine per rat, injected subcutaneously.

rats = assay: Apomorphine induced stereotyped sniffing; type: in vivo; conditions: for (Stereotyped) sniffing: after 1 h apomorphine 250 μg/kg s.c., tested 20 min later, measured for 4 min
Procedure: Subcutaneous treatment of rats with apomorphine (250 μg/kg) elicits hyperlocomotion and especially stereotyped sniffing behavoir. Increase of this stereotyped sniffing by pretreatment with the drug to be tested in considered to be an indication for dopaminergic activity.
Groups of rats were subcutaneously injected with placebo (0.5 ml saline), (2-9)-α-endorfine (50 μg) or (3-9)-α-endorfine (50 μg) and after 1 h. with apomorphine (250 μg/kg). An additional group of rats received two placebo (0.5 ml saline) injections. Twenty minutes after the last injection the rats were tested in a small open field and the duration of stereotyped sniffing was measured for 4 min.

[2] = pole-jumping test; delaying extinction of conditioned avoidance behavior; Pharmac. Ther. 16, 67, 1982; cited from earlier work

For CSCC[C@H](NC(=O)[C@H](Cc1ccccc1)NC(=O)CNC(=O)CN)C(=O)N[C@H](C(=O)N[C@@H](CO)C(=O)N[C@@H](CCC(=O)O)C(=O)N[C@@H](CCCCN)C(=O)O)[C@@H](C)O [(2-9)-α-endorfine, H-Gly-Gly-L-Phe-L-Met-L-Thr-L-Ser-L-Glu-L-Lys-OH] (H-GGFMTSEK-OH), the AVP levels ([1]; 2 minutes after injection) was 667 pg/mL, the AVP levels ([1]; 5 minutes after injection) was 92 pg/mL and the AVP levels ([1]; 10 minutes after injection) was 78 pg/mL. The “(Stereotyped) sniffing” value (rats; pretreatment 50 μg s.c.) was 158.0 s, the “potentiation of apomorphine-induced stereotyped sniffing” value (rats; pretreatment 50 μg, apomorphine 250 μg/kg s.c.) was “potentiated” and the “times less active than α-endorfine” value [2] was 10 times.
For CN1CCc2cccc3c2[C@H]1Cc1ccc(O)c(O)c1-3 [apomorphine, reference compound], the “(Stereotyped) sniffing” value (rats; placebo (0.5 ml saline) pretreatment) was 121.4 s.
